In PubChem BioAssay AID1963840 (Molecular Pharmacology Branch, DTP, NCI, 2024):

System: 695427-040-R-J1-PDC complex spheroid viability
Assay: Anticancer human tumor 695427-040-R-J1-PDC patient-derived colon adenocarcinoma cell line growth inhibition [POLQ]
Conditions: for IC50: curve of first compound; for viability, T/C: stronger effect = lower value
Method in brief: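 Growth inhibition in 3D: complex spheroids (tumor PDC, HUVEC, MSC) treated with POLQ inhibitor combinations; where Cmax unknown, highest tested concentration 10 microM, except SN-38 at 1 microM.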

[1] = second compound 0.0316 µM, first compound 0.00316 µM
[2] = second compound 0.0316 µM, first compound 0.01 µM
[3] = second compound 0.0316 µM, first compound 0.0316 µM
[4] = second compound 0.0316 µM, first compound 0.1 µM
[5] = second compound 0.0316 µM, first compound 0.316 µM
[6] = second compound 0.0316 µM, first compound 1 µM
[7] = second compound 0.1 µM, first compound 0.00316 µM
[8] = second compound 0.1 µM, first compound 0.01 µM
[9] = second compound 0.1 µM, first compound 0.0316 µM
[10] = second compound 0.1 µM, first compound 0.1 µM
[11] = second compound 0.1 µM, first compound 0.316 µM
[12] = second compound 0.1 µM, first compound 1 µM
[13] = second compound 0.316 µM, first compound 0.00316 µM
[14] = second compound 0.316 µM, first compound 0.01 µM
[15] = second compound 0.316 µM, first compound 0.0316 µM
[16] = second compound 0.316 µM, first compound 0.1 µM
[17] = second compound 0.316 µM, first compound 0.316 µM
[18] = second compound 0.316 µM, first compound 1 µM
[19] = second compound 1 µM, first compound 0.00316 µM
[20] = second compound 1 µM, first compound 0.01 µM
[21] = second compound 1 µM, first compound 0.0316 µM
[22] = second compound 1 µM, first compound 0.1 µM
[23] = second compound 1 µM, first compound 0.316 µM
[24] = second compound 1 µM, first compound 1 µM
[25] = second compound 3.16 µM, first compound 0.00316 µM
[26] = second compound 3.16 µM, first compound 0.01 µM
[27] = second compound 3.16 µM, first compound 0.0316 µM
[28] = second compound 3.16 µM, first compound 0.1 µM
[29] = second compound 3.16 µM, first compound 0.316 µM
[30] = second compound 3.16 µM, first compound 1 µM
[31] = second compound 10 µM, first compound 0.00316 µM
[32] = second compound 10 µM, first compound 0.01 µM
[33] = second compound 10 µM, first compound 0.0316 µM
[34] = second compound 10 µM, first compound 0.1 µM
[35] = second compound 10 µM, first compound 0.316 µM
[36] = second compound 10 µM, first compound 1 µM
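Further: spheroids exposed to compounds for seven days.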
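Wherever viability, T/C is given: 100% = DMSO vehicle control viability.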

## C=CCn1c(=O)c2cnc(Nc3ccc(N4CCN(C)CC4)cc3)nc2n1-c1cccc(C(C)(C)O)n1 + COC1C(OC(N)=O)C(O)C(Oc2ccc3c(O)c(NC(=O)c4ccc(O)c(CC=C(C)C)c4)c(=O)oc3c2C)OC1(C)C
Second compound 0.0316 µM
  IC50: > 1000 nM
Second compound 0.1 µM
  IC50: > 1000 nM
Second compound 0.316 µM
  IC50: > 1000 nM
Second compound 1 µM
  IC50: > 1000 nM
Second compound 3.16 µM
  IC50: > 1000 nM
Second compound 10 µM
  IC50: > 1000 nM
[1]
  viability, T/C: 98.2%
[2]
  viability, T/C: 91.8%
[3]
  viability, T/C: 110%
[4]
  viability, T/C: 95.3%
[5]
  viability, T/C: 95.5%
[6]
  viability, T/C: 82.2%
[7]
  viability, T/C: 103%
[8]
  viability, T/C: 103%
[9]
  viability, T/C: 96.3%
[10]
  viability, T/C: 102%
[11]
  viability, T/C: 98.4%
[12]
  viability, T/C: 80.3%
[13]
  viability, T/C: 105%
[14]
  viability, T/C: 114%
[15]
  viability, T/C: 103%
[16]
  viability, T/C: 105%
[17]
  viability, T/C: 91.8%
[18]
  viability, T/C: 70.9%
[19]
  viability, T/C: 99.2%
[20]
  viability, T/C: 98.5%
[21]
  viability, T/C: 101%
[22]
  viability, T/C: 96.3%
[23]
  viability, T/C: 97.3%
[24]
  viability, T/C: 72.4%
[25]
  viability, T/C: 92.3%
[26]
  viability, T/C: 102%
[27]
  viability, T/C: 106%
[28]
  viability, T/C: 97.4%
[29]
  viability, T/C: 95.3%
[30]
  viability, T/C: 79.1%
[31]
  viability, T/C: 97.9%
[32]
  viability, T/C: 95%
[33]
  viability, T/C: 106%
[34]
  viability, T/C: 101%
[35]
  viability, T/C: 103%
[36]
  viability, T/C: 71.7%

## CC[C@@]1(O)C(=O)OCc2c1cc1n(c2=O)Cc2cc3c(CN(C)C)c(O)ccc3nc2-1 + COC1C(OC(N)=O)C(O)C(Oc2ccc3c(O)c(NC(=O)c4ccc(O)c(CC=C(C)C)c4)c(=O)oc3c2C)OC1(C)C
Second compound 0.0316 µM
  IC50: > 100 nM
Second compound 0.1 µM
  IC50: > 100 nM
Second compound 0.316 µM
  IC50: > 100 nM
Second compound 1 µM
  IC50: > 100 nM
Second compound 3.16 µM
  IC50: > 100 nM
Second compound 10 µM
  IC50: > 100 nM
Second compound 0.0316 µM, first compound 0.000316 µM
  viability, T/C: 103%
Second compound 0.0316 µM, first compound 0.001 µM
  viability, T/C: 96.8%
[1]
  viability, T/C: 97.8%
[2]
  viability, T/C: 103%
[3]
  viability, T/C: 100%
[4]
  viability, T/C: 95.1%
Second compound 0.1 µM, first compound 0.000316 µM
  viability, T/C: 116%
Second compound 0.1 µM, first compound 0.001 µM
  viability, T/C: 104%
[7]
  viability, T/C: 101%
[8]
  viability, T/C: 102%
[9]
  viability, T/C: 104%
[10]
  viability, T/C: 99.5%
Second compound 0.316 µM, first compound 0.000316 µM
  viability, T/C: 102%
Second compound 0.316 µM, first compound 0.001 µM
  viability, T/C: 102%
[13]
  viability, T/C: 106%
[14]
  viability, T/C: 104%
[15]
  viability, T/C: 105%
[16]
  viability, T/C: 92.4%
Second compound 1 µM, first compound 0.000316 µM
  viability, T/C: 108%
Second compound 1 µM, first compound 0.001 µM
  viability, T/C: 102%
[19]
  viability, T/C: 99.6%
[20]
  viability, T/C: 98.1%
[21]
  viability, T/C: 106%
[22]
  viability, T/C: 93.1%
Second compound 3.16 µM, first compound 0.000316 µM
  viability, T/C: 97.2%
Second compound 3.16 µM, first compound 0.001 µM
  viability, T/C: 101%
[25]
  viability, T/C: 103%
[26]
  viability, T/C: 97.2%
[27]
  viability, T/C: 105%
[28]
  viability, T/C: 86%
Second compound 10 µM, first compound 0.000316 µM
  viability, T/C: 107%
Second compound 10 µM, first compound 0.001 µM
  viability, T/C: 103%
[31]
  viability, T/C: 105%
[32]
  viability, T/C: 106%
[33]
  viability, T/C: 105%
[34]
  viability, T/C: 93%

## CCc1c2c(nc3ccc(O)cc13)-c1cc3c(c(=O)n1C2)COC(=O)[C@]3(O)CC + COC1C(OC(N)=O)C(O)C(Oc2ccc3c(O)c(NC(=O)c4ccc(O)c(CC=C(C)C)c4)c(=O)oc3c2C)OC1(C)C
Second compound 0.0316 µM
  IC50: 976 nM
Second compound 0.1 µM
  IC50: 893 nM
Second compound 0.316 µM
  IC50: > 1000 nM
Second compound 1 µM
  IC50: 985 nM
Second compound 3.16 µM
  IC50: 809 nM
Second compound 10 µM
  IC50: 656 nM
[1]
  viability, T/C: 97.5%
[2]
  viability, T/C: 89%
[3]
  viability, T/C: 82.6%
[4]
  viability, T/C: 78.9%
[5]
  viability, T/C: 68.2%
[6]
  viability, T/C: 48.1%
[7]
  viability, T/C: 102%
[8]
  viability, T/C: 91.4%
[9]
  viability, T/C: 86.9%
[10]
  viability, T/C: 78.4%
[11]
  viability, T/C: 68.4%
[12]
  viability, T/C: 46.9%
[13]
  viability, T/C: 107%
[14]
  viability, T/C: 94.4%
[15]
  viability, T/C: 78.8%
[16]
  viability, T/C: 78.3%
[17]
  viability, T/C: 68.8%
[18]
  viability, T/C: 50.5%
[19]
  viability, T/C: 97.3%
[20]
  viability, T/C: 97.5%
[21]
  viability, T/C: 81.7%
[22]
  viability, T/C: 78.9%
[23]
  viability, T/C: 69.1%
[24]
  viability, T/C: 48.4%
[25]
  viability, T/C: 97%
[26]
  viability, T/C: 90.9%
[27]
  viability, T/C: 87.7%
[28]
  viability, T/C: 75.8%
[29]
  viability, T/C: 63.2%
[30]
  viability, T/C: 47%
[31]
  viability, T/C: 98.7%
[32]
  viability, T/C: 84.6%
[33]
  viability, T/C: 85.7%
[34]
  viability, T/C: 74.5%
[35]
  viability, T/C: 64.2%
[36]
  viability, T/C: 42%
